Values belong to the molecule of their own block, whether it stands above or below them.
Key:
[1] = target: T1, Proteasome Macropain subunit MB1 (Homo sapiens) (UniProt P28074); test: Inhibition of beta 5 chymotrypsin-like activity (unknown origin) at 100 uM using Suc-LLVY-AMC as substrate for 90 mins by fluorescence based assay; set-up: scale not given: the % may be the effect or the level left
T1 sequence (whole entry): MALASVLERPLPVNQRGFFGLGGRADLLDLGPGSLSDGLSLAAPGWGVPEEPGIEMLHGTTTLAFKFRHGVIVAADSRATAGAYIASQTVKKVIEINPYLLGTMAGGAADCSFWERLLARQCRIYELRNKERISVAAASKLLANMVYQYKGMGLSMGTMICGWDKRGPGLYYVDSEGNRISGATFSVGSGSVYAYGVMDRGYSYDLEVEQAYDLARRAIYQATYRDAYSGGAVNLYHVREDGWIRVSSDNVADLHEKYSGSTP

[2] = Thiol reactivity of the compound assessed as TNB2-depletion at 200 uM measured upto 24 hrs by TNB2-depletion assay; format: physicochemical
[3] = target: T2, Proteasome subunit beta type-8 (Homo sapiens, UniProt P28062); test: Inhibition of human chymotrypsin-like beta 5i subunit of iCP using suc-LLVY-AMC as flurogenic substrate for 90 mins by fluorescence-based assay
T2 sequence (P28062 whole entry): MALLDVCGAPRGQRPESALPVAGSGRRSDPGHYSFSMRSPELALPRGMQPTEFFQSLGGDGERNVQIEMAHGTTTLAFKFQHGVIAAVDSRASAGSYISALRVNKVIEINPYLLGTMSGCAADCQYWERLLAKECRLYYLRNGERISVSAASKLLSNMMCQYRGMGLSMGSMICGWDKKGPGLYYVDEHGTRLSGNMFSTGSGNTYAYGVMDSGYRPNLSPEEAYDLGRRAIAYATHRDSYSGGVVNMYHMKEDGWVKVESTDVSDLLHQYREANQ

[4] = target: T3, Proteasome subunit beta type-8 (Homo sapiens) (UniProt P28062); test: Inhibition of human chymotrypsin-like beta 5i subunit of iCP assessed as residual activity using suc-LLVY-AMC as flurogenic substrate at 100 uM for 90 mins by fluorescence-based assay
T3 sequence (whole entry): T2 sequence (P28062 whole entry)

[5] = target: T4, Proteasome Macropain subunit MB1 (Homo sapiens, UniProt P28074); test: Inhibition of beta 5 chymotrypsin-like activity (unknown origin) using Suc-LLVY-AMC as substrate for 90 mins by fluorescence based assay
T4 sequence (P28074 whole entry): T1 sequence (whole entry)

[6] = Glutathione reactivity of compound at pH 9 measured by HPLC-MS assay; format: physicochemical
[7] = Glutathione reactivity of compound at pH 8 measured by HPLC-MS assay; format: physicochemical
[8] = Glutathione reactivity of compound at pH 7.5 measured by HPLC-MS assay; format: physicochemical
[9] = Glutathione reactivity of compound at pH 8.5 measured by HPLC-MS assay; format: physicochemical
[10] = target: T3, Proteasome subunit beta type-8 (Homo sapiens); test: Inhibition of human chymotrypsin-like beta 5i subunit of iCP assessed as residual activity using suc-LLVY-AMC as flurogenic substrate at 10 uM for 90 mins by fluorescence-based assay
[11] = target: T3, Proteasome subunit beta type-8 (Homo sapiens); test: Inhibition of human chymotrypsin-like beta 5i subunit of iCP assessed as residual activity using suc-LLVY-AMC as flurogenic substrate at 150 uM for 90 mins by fluorescence-based assay

- Activity [1]: 92%
- Drug metabolism [2]: Metabolite_Detected
- IC50 [3]: 30 µM
SMILES: Cc1ccc2[nH]c(=S)oc2c1

- Activity [4]: 56%
SMILES: Cc1ccc2sc(=S)[nH]c2c1

- Activity [4]: 70%
SMILES: N#Cc1cccc(-c2cccc3[nH]c(=S)sc23)c1

- IC50 [3]: 9 µM
SMILES: CCOc1ccc2nc(S)sc2c1

- Activity [4]: 63%
SMILES: CC(=O)Nc1ccc2[nH]c(=S)oc2c1

- IC50 [3]: 3 µM
SMILES: COC(=O)c1ccc2[nH]c(=S)oc2c1

- Activity [10]: 49%
SMILES: Nc1ccc2[nH]c(S)nc2c1

- Activity [4]: 87%
SMILES: S=c1[nH]c2cccc(Br)c2[nH]1

- IC50 [3]: 79 µM
SMILES: Nc1cccc2[nH]c(=S)oc12

- IC50 [3]: 81 µM
SMILES: COc1cccc2oc(=S)[nH]c12

- IC50 [3]: 27 µM
SMILES: Nc1ccc2[nH]c(=S)oc2c1

- IC50 [3]: 7.2 µM
SMILES: COc1ccc2sc(=S)[nH]c2c1

- Activity [10]: 97%
SMILES: COc1ccc2[nH]c(S)nc2c1

- Activity [10]: 84%
SMILES: Cc1cccc2[nH]c(=S)[nH]c12

- Drug metabolism [6]: Metabolite_Notdetected
- Drug metabolism [7]: Metabolite_Notdetected
- Drug metabolism [8]: Metabolite_Notdetected
- Drug metabolism [9]: Metabolite_Notdetected
- IC50 [3]: 9 µM
SMILES: O=[N+]([O-])c1ccc2oc(=S)[nH]c2c1

- IC50 [3]: 15 µM
SMILES: O=C(Cc1cccnc1)Nc1ccc2[nH]c(=S)sc2c1

- Drug metabolism [6]: Metabolite_Notdetected
- Drug metabolism [7]: Metabolite_Notdetected
- Drug metabolism [8]: Metabolite_Notdetected
- Activity [1]: 98%
- Drug metabolism [2]: Metabolite_Notdetected
- Drug metabolism [9]: Metabolite_Notdetected
- IC50 [3]: 62 µM
SMILES: Sc1nc2cc(Cl)ccc2[nH]1

- IC50 [3]: 26 µM
SMILES: O=C(CCc1cccnc1)Nc1ccc2[nH]c(=S)sc2c1

- Activity [4]: 99%
SMILES: Cc1ccc2oc(=S)[nH]c2c1

- IC50 [3]: 130 µM
SMILES: CC(=O)Nc1ccc2[nH]c(=S)sc2c1

- Activity [10]: 57%
SMILES: CC(=O)Nc1ccc2[nH]c(=S)[nH]c2c1

- Activity [4]: 54%
SMILES: S=c1[nH]c2cccc(-c3ccccc3)c2s1

- IC50 [3]: 36 µM
SMILES: S=c1[nH]c2c(Cl)cccc2o1

- Drug metabolism [6]: Metabolite_Notdetected
- Drug metabolism [7]: Metabolite_Notdetected
- Drug metabolism [8]: Metabolite_Notdetected
- Drug metabolism [9]: Metabolite_Notdetected
- IC50 [3]: 43 µM
SMILES: S=c1[nH]c2c(Cl)cccc2s1

- Activity [1]: 84%
- Drug metabolism [2]: Metabolite_Detected
- IC50 [3]: 11 µM
SMILES: S=c1[nH]c2cccc(Br)c2s1

- IC50 [3]: 95 µM
SMILES: O=C(Nc1ccc2[nH]c(=S)sc2c1)[C@H]1CCCN1

- Activity [4]: 58%
- Drug metabolism [6]: Metabolite_Notdetected
- Drug metabolism [7]: Metabolite_Notdetected
- Drug metabolism [8]: Metabolite_Notdetected
- Drug metabolism [9]: Metabolite_Notdetected
SMILES: O=[N+]([O-])c1ccc2sc(=S)[nH]c2c1

- Drug metabolism [6]: Metabolite_Notdetected
- Drug metabolism [7]: Metabolite_Notdetected
- Drug metabolism [8]: Metabolite_Notdetected
- Drug metabolism [9]: Metabolite_Notdetected
- IC50 [3]: 65 µM
SMILES: S=c1[nH]c2ccc(Cl)cc2o1

- Activity [4]: 59%
SMILES: COc1ccc2oc(=S)[nH]c2c1

- Activity [10]: 95%
SMILES: Cc1ccc2[nH]c(=S)[nH]c2c1

- Drug metabolism [6]: Metabolite_Notdetected
- Drug metabolism [7]: Metabolite_Notdetected
- Drug metabolism [8]: Metabolite_Notdetected
- Activity [1]: 94%
- Drug metabolism [2]: Metabolite_Detected
- Drug metabolism [9]: Metabolite_Notdetected
- IC50 [3]: 16 µM
SMILES: S=c1[nH]c2cccc(Cl)c2o1

- IC50 [3]: 13 µM
SMILES: COc1ccc2[nH]c(=S)sc2c1

- Activity [4]: 63%
SMILES: Cn1c(=S)[nH]c2cccc(N)c21

- IC50 [3]: 60 µM
SMILES: S=c1[nH]c2cccc(Cl)c2[nH]1

- Activity [4]: 67%
SMILES: Cn1c(=S)[nH]c2ccc(N)cc21

- Drug metabolism [6]: Metabolite_Notdetected
- Drug metabolism [7]: Metabolite_Notdetected
- Drug metabolism [8]: Metabolite_Notdetected
- Activity [1]: 99%
- Drug metabolism [2]: Metabolite_Detected
- Drug metabolism [9]: Metabolite_Notdetected
- IC50 [3]: 1.8 µM
SMILES: Cn1c(=S)[nH]c2cccc(Cl)c21

- Activity [1]: 71%
- IC50 [3]: 28 µM
SMILES: N#Cc1nc2ccc(Cl)cc2[nH]1

- IC50 [3]: 32 µM
SMILES: Sc1nc2cc(Cl)ccc2s1

- Activity [10]: 80%
- Activity [1]: 95%
- Drug metabolism [2]: Metabolite_Notdetected
SMILES: CCOc1ccc2[nH]c(S)nc2c1

- Drug metabolism [6]: Metabolite_Notdetected
- Drug metabolism [7]: Metabolite_Notdetected
- Drug metabolism [8]: Metabolite_Notdetected
- Activity [1]: 59%
- Drug metabolism [2]: Metabolite_Detected
- Drug metabolism [9]: Metabolite_Notdetected
- IC50 [3]: 9.7 µM
SMILES: S=c1[nH]c2cccc(Cl)c2s1

- IC50 [3]: 149 µM
SMILES: CC(=O)Nc1ccc2[nH]c(=S)n(C)c2c1

- Activity [11]: 50%
SMILES: Cn1c(=S)[nH]c2c(Cl)cccc21

- Activity [4]: 80%
SMILES: Nc1ccc2nc(S)sc2c1

- Activity [4]: 52%
SMILES: Cn1c(=S)[nH]c2ccc([N+](=O)[O-])cc21

Second part, the molecule before the results:

SMILES: O=C(CCl)Nc1nc2ccccc2s1
- Activity [4]: 73%

SMILES: N#Cc1nc2cccc(Cl)c2o1
- IC50 [5]: 93 µM
- IC50 [3]: 10 µM

SMILES: N#Cc1nc2ccccc2s1
- Activity [4]: 61%

SMILES: Sc1nc2ccccc2o1
- Activity [1]: 116%
- Drug metabolism [2]: Metabolite_Detected
- IC50 [3]: 17 µM

SMILES: Oc1cccc2oc(S)nc12
- Activity [1]: 87%
- Drug metabolism [2]: Metabolite_Detected
- IC50 [3]: 4.1 µM

SMILES: O=C(Nc1ccc2[nH]c(=S)oc2c1)c1ccccc1
- IC50 [3]: 49 µM

SMILES: O=[N+]([O-])c1ccc2nc(S)sc2c1
- Activity [4]: 69%
- Drug metabolism [6]: Metabolite_Notdetected
- Drug metabolism [7]: Metabolite_Notdetected
- Drug metabolism [8]: Metabolite_Notdetected
- Drug metabolism [9]: Metabolite_Notdetected

SMILES: O=C(CCc1cccnc1)Nc1ccc2[nH]c(=S)oc2c1
- Activity [4]: 56%

SMILES: CS(=O)(=O)c1nc2ccccc2s1
- Activity [4]: 88%

SMILES: Cn1c(=S)[nH]c2cccc(NC(=O)c3ccccc3)c21
- Activity [4]: 47%

SMILES: N#Cc1nc2cc(Cl)ccc2o1
- Activity [1]: 101%
- IC50 [3]: 67 µM

SMILES: N#Cc1nc2c(Cl)cccc2s1
- IC50 [3]: 85 µM

SMILES: C=CS(=O)(=O)c1nc2ccccc2s1
- Activity [4]: 40%

SMILES: Cn1c(S)nc2ccc(Cl)cc21
- Drug metabolism [6]: Metabolite_Notdetected
- Drug metabolism [7]: Metabolite_Notdetected
- Drug metabolism [8]: Metabolite_Notdetected
- Activity [1]: 94%
- Drug metabolism [2]: Metabolite_Detected
- Drug metabolism [9]: Metabolite_Notdetected
- IC50 [3]: 4.2 µM

SMILES: Cn1c(=S)[nH]c2cccc(NC(=O)CCc3cccnc3)c21
- Activity [4]: 92%

SMILES: Cn1c(=S)[nH]c2ccc(NC(=O)Cc3cccnc3)cc21
- Activity [4]: 89%

SMILES: Cn1c(C#N)nc2cccc(Cl)c21
- Activity [1]: 89%
- IC50 [3]: 20 µM

SMILES: C=CC(=O)Nc1nc2ccccc2n1C
- Activity [4]: 83%

SMILES: N#Cc1nc2ccc(Cl)cc2s1
- Activity [4]: 58%

SMILES: Cn1c(=S)[nH]c2ccc(NC(=O)[C@H]3CCCN3)cc21
- IC50 [3]: 109 µM

SMILES: N#Cc1nc2cccc(Cl)c2[nH]1
- Activity [1]: 82%
- IC50 [3]: 75 µM

SMILES: Cn1c(=S)[nH]c2ccc(NC(=O)CCc3cccnc3)cc21
- Activity [4]: 72%

SMILES: Cn1c(S)nc2ccccc21
- Activity [1]: 91%
- Drug metabolism [2]: Metabolite_Notdetected
- IC50 [3]: 94 µM

SMILES: Sc1nc2ccccc2[nH]1 [2-MERCAPTOBENZIMIDAZOLE]
- Activity [1]: 100%
- Drug metabolism [2]: Metabolite_Notdetected
- IC50 [3]: 114 µM

SMILES: O=C(Nc1cccc2[nH]c(=S)oc12)c1ccccc1
- IC50 [3]: 129 µM

SMILES: N#Cc1nc2ccccc2o1
- Activity [1]: 82%
- IC50 [3]: 83 µM

SMILES: O=C(Cc1cccnc1)Nc1cccc2[nH]c(=S)oc12
- IC50 [3]: 156 µM

SMILES: C=CC(=O)Nc1nc2ccccc2s1
- Activity [4]: 44%

SMILES: Sc1nc2ccccc2s1 [2-MERCAPTOBENZOTHIAZOLE]
- Activity [1]: 85%
- Drug metabolism [2]: Metabolite_Detected
- IC50 [3]: 13 µM

SMILES: Sc1nc2cc(Cl)ccc2o1
- Drug metabolism [6]: Metabolite_Notdetected
- Drug metabolism [7]: Metabolite_Notdetected
- Drug metabolism [8]: Metabolite_Notdetected
- Drug metabolism [9]: Metabolite_Notdetected
- IC50 [3]: 96 µM

SMILES: Cn1c(C#N)nc2ccccc21
- Activity [4]: 99%

SMILES: N#Cc1nc2ccccc2[nH]1
- Activity [4]: 89%

SMILES: Cn1c(=S)[nH]c2cccc(NC(=O)Cc3cccnc3)c21
- Activity [4]: 94%

SMILES: O=C(Nc1ccc2nc(S)sc2c1)c1ccccc1
- IC50 [3]: 7.1 µM

SMILES: O=C(Cc1cccnc1)Nc1ccc2[nH]c(=S)oc2c1
- Activity [4]: 50%

SMILES: O=C(Nc1ccc2[nH]c(=S)oc2c1)[C@H]1CCCN1
- Activity [4]: 65%

SMILES: Cn1c(C#N)nc2ccc(Cl)cc21
- Activity [4]: 50%

SMILES: N#Cc1nc2cccc(Cl)c2s1
- Activity [1]: 72%
- IC50 [3]: 18 µM
